Measurements taken from US9433622B2, “Pyrimidine compounds useful in the treatment of diseases mediated by IKKE and/or TBK1 mechanisms” (DOMAINEX LIMITED, priority 2013, dated 2016).

Experiments:
TBK1 = TBK1 (Homo sapiens (Human), UniProt Q9UHD2); experiment: Lanthascreen TR-FRET kinase inhibition assay, TBK1; format: biochemical; settings: 20 μM ATP (apparent Km), 8 nM kinase, 2.5 h
Protocol: (§1) Compounds of the invention (synthesised as described below) were tested for activity against the IKKε and TBK-1 enzyme as follows:
(§2) Inhibitions studies were performed using a time-resolved fluorescence-based Lanthascreen™ assay. Phosphorylation of a fluorescein-labelled substrate peptide is measured using terbium-labeled phosphospecific antibodies.
(§3) Kinase inhibition assays (10 μL) were performed at 20° C. in 384-well plate format. […] The final reaction conditions contained 400 nM fluorescein-IkBα substrate ([…]), 20 μM ATP, 2 nM or 8 nM IKKε or TBK1 kinase respectively, and 3% DMSO in kinase assay buffer consisting of 50 mM HEPES (pH 7.5), 10 mM MgCl, 1 mM EGTA, 0.01% Brij-35.
(§4) Compound dilutions were prepared from 10 mM DMSO stocks by dilution into DMSO.
(§5) The kinase phosphorylation assay was initiated by the addition of the kinase and the reaction was allowed to proceed for 1 h or 2.5 h for IKKε and TBK-1 kinase respectively.

IKKε = IKKε (Homo sapiens (Human), UniProt Q14164); experiment: Lanthascreen TR-FRET kinase inhibition assay, IKKε; format: biochemical; settings: 20 μM ATP (apparent Km), 2 nM kinase, 1 h
Chain of IKKε (Q14164 whole entry): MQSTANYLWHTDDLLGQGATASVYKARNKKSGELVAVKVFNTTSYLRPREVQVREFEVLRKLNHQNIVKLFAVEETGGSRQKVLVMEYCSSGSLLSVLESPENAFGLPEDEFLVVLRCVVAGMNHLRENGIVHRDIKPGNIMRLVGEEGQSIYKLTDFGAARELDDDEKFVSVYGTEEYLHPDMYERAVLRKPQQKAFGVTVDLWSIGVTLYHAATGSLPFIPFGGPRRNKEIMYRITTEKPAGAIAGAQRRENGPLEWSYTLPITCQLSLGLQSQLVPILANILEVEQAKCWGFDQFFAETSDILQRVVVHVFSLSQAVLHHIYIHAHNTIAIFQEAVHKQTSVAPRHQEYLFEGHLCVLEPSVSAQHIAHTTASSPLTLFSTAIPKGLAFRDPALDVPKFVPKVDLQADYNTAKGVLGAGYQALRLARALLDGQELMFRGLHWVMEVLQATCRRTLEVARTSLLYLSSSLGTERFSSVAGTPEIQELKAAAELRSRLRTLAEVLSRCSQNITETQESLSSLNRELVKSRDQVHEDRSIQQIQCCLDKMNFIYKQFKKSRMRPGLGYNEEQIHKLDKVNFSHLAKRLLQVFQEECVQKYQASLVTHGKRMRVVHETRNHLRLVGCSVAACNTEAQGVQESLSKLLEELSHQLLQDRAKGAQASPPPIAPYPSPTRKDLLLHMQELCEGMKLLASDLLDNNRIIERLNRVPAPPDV
Protocol: as §1, §2, §3, §4, §5

Chain of TBK1 (Q9UHD2 whole entry): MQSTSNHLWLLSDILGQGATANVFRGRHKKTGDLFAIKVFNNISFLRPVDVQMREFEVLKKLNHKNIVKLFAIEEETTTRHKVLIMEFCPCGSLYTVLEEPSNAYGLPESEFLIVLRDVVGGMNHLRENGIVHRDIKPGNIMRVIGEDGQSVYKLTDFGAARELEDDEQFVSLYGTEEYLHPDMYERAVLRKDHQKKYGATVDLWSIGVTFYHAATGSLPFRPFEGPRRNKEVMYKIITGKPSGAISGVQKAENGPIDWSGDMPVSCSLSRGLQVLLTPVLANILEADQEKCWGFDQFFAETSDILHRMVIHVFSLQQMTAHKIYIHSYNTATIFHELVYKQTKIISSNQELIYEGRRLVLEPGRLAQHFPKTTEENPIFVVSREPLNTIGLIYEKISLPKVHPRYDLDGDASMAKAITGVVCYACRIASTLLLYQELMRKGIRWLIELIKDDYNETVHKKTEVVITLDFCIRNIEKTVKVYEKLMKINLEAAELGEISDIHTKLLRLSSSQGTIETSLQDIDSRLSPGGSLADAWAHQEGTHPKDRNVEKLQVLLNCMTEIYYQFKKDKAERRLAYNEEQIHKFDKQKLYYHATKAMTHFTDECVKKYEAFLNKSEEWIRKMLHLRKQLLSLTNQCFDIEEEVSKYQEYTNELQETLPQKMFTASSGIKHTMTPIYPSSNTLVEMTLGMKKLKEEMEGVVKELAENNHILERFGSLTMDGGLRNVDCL

N#Cc1cc(-c2ccnc(Nc3cnn(C[C@H](O)CO)c3)n2)cnc1N1CCCC1 [DMX-38, 5-{2-[1-((S)-2,3-Dihydroxy-propyl)-1H-pyrazol-4-ylamino]-pyrimidin-4-yl}-2-pyrrolidin-1-yl-nicotinonitrile]
IC50 (TBK1): < 0.015 µM | IC50 (IKKε): < 0.1 µM

N#Cc1cc(-c2ccnc(Nc3cnn(CCO)c3)n2)cnc1N1CCCC1 [DMX-36, 5-{2-[1-(2-Hydroxy-ethyl)-1H-pyrazol-4-ylamino]-pyrimidin-4-yl}-2-pyrrolidin-1-yl-nicotinonitrile]
IC50 (TBK1): < 0.03 µM | IC50 (IKKε): < 0.03 µM

N#Cc1cc(-c2nc(Nc3ccc(CN4CCOCC4)nc3)ncc2F)cnc1NC1CC1 [DMX-123, 2-Cyclopropylamino-5-[5-fluoro-2-(6-morpholin-4-ylmethyl-pyridin-3-ylamino)-pyrimidin-4-yl]-nicotinonitrile]
IC50 (TBK1): < 0.1 µM | IC50 (IKKε): < 1 µM

CN1CCC(NC(=O)c2cccc(Nc3nccc(-c4cnc(N5CC[C@H](F)C5)c(C#N)c4)n3)c2)CC1 [DMX-1, 3-{4-[5-Cyano-6-((S)-3-fluoro-pyrrolidin-1-yl)-pyridin-3-yl]-pyrimidin-2-ylamino}-N-(1-methyl-piperidin-4-yl)-benzamide]
IC50 (TBK1): < 0.03 µM | IC50 (IKKε): < 0.1 µM

Cn1cc(Nc2nccc(-c3cnc(N4CC[C@H](O)C4)c(C#N)c3)n2)cn1 [DMX-16, 2-((S)-3-Hydroxy-pyrrolidin-1-yl)-5-[2-(1-methyl-1H-pyrazol-4-ylamino)-pyrimidin-4-yl]-nicotinonitrile]
IC50 (TBK1): < 0.1 µM | IC50 (IKKε): < 0.1 µM

N#Cc1cc(-c2ccnc(Nc3cnn(CCCO)c3)n2)cnc1N1CC[C@H](F)C1 [DMX-52, 2-((S)-3-Fluoro-pyrrolidin-1-yl)-5-{2-[1-(3-hydroxy-propyl)-1H-pyrazol-4-ylamino]-pyrimidin-4-yl}-nicotinonitrile]
IC50 (TBK1): < 0.03 µM | IC50 (IKKε): < 0.1 µM

N#Cc1cc(-c2ccnc(Nc3cnn(C[C@@H](O)CO)c3)n2)cnc1N1CCCC1 [DMX-39, 5-{2-[1-((R)-2,3-Dihydroxy-propyl)-1H-pyrazol-4-ylamino]-pyrimidin-4-yl}-2-pyrrolidin-1-yl-nicotinonitrile]
IC50 (TBK1): < 0.015 µM | IC50 (IKKε): < 0.03 µM

N#Cc1cc(-c2ccnc(Nc3ccnc(CN4CCOCC4)c3)n2)cnc1N1CC[C@H](F)C1 [DMX-99, 2-((S)-3-Fluoro-pyrrolidin-1-yl)-5-[2-(2-morpholin-4-ylmethyl-pyridin-4-ylamino)-pyrimidin-4-yl]-nicotinonitrile]
IC50 (TBK1): < 0.015 µM | IC50 (IKKε): < 0.03 µM

CNc1ncc(-c2ccnc(Nc3ccc(NC4CCN(C)CC4)nc3)n2)cc1C#N [DMX-119, 2-Methylamino-5-{2-[6-(1-methyl-piperidin-4-ylamino)-pyridin-3-ylamino]-pyrimidin-4-yl}-nicotinonitrile]
IC50 (TBK1): < 0.1 µM | IC50 (IKKε): < 1 µM

Cn1cc(Nc2nccc(-c3cnc(N4CC[C@H](F)C4)c(C#N)c3)n2)cn1 [DMX-7, 2-((S)-3-Fluoro-pyrrolidin-1-yl)-5-[2-(1-methyl-1H-pyrazol-4-ylamino)-pyrimidin-4-yl]-nicotinonitrile]
IC50 (TBK1): < 0.03 µM | IC50 (IKKε): < 0.03 µM

COCCNCc1ccc(Nc2nccc(-c3ccc(N4CC[C@H](F)C4)c(C#N)n3)n2)cn1 [DMX-157, 3-((S)-3-Fluoro-pyrrolidin-1-yl)-6-(2-{6-[(2-methoxy-ethylamino)-methyl]-pyridin-3-ylamino}-pyrimidin-4-yl)-pyridine-2-carbonitrile]
IC50 (TBK1): < 0.03 µM | IC50 (IKKε): < 0.1 µM

N#Cc1nc(-c2ccnc(Nc3ccc(CN4CCOCC4)nc3)n2)ccc1N1CCCOCC1 [DMX-164, 6-[2-(6-Morpholin-4-ylmethyl-pyridin-3-ylamino)-pyrimidin-4-yl]-3-[1,4]oxazepan-4-yl-pyridine-2-carbonitrile]
IC50 (TBK1): < 0.1 µM | IC50 (IKKε): < 0.03 µM

N#Cc1cc(-c2ccnc(Nc3ccc(C(=O)NCCO)cc3)n2)cnc1N1CC[C@H](F)C1 [DMX-48, 4-{4-[5-Cyano-6-((S)-3-fluoro-pyrrolidin-1-yl)-pyridin-3-yl]-pyrimidin-2-ylamino}-N-(2-hydroxy-ethyl)-benzamide]
IC50 (TBK1): < 0.015 µM | IC50 (IKKε): < 0.015 µM
